Reference: patent US11000033B2, “Ketone or oxime compound, and herbicide” (NISSAN CHEMICAL CORPORATION, priority 2014, dated 2021)

How the values were obtained:
Assay type in all cases: in vivo
[1] = test system: corn; assay: Test Example 5: effect on crop by foliage application, plastic box (symbol c); conditions: 320 g/ha, 3 weeks after application
Procedure, shortened: (§1)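 Greenhouse culture at 25° C. to 30° C. followed spot-like sowing into sterilized diluvial soil, with seed covered by roughly 1.5 cm of soil.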

[2] = test system: Echinochloa crus-galli var. crus-galli; assay: Test Example 5: herbicidal effect by foliage application, plastic box (symbol H); conditions: 320 g/ha, 3 weeks after application
Procedure, shortened: (§2)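 Seeds were sown in sterilized diluvial soil, covered with about 1.5 cm of soil and grown 14 days in a greenhouse at 25° C. to 30° C. An emulsifiable formulation diluted in water to a set rate was sprayed over foliage, and injury was scored 3 weeks later.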

[3] = test system: Leptochloa chinensis; assay: Test Example 3: herbicidal effect by foliage application, Wagner pot (symbol D); conditions: application herbicide amount 320 g/ha
Procedure, shortened: (§3)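 Scoring took place 3 weeks after application, using fixed criteria. Plants had been raised from seed for 14 days at 25 to 30 °C in submerged alluvial soil before a diluted emulsion of the test compound was sprayed uniformly on the leaves.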

[4] = test system: directly sowed rice plant; assay: Test Example 3: effect on crop by foliage application, Wagner pot (symbol b); conditions: application herbicide amount 320 g/ha
Procedure, shortened: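 Alluvial soil in a 1/10000-are Wagner pot was flooded to a water depth of 0.1–0.5 cm. Echinochloa crus-galli var. crus-galli, Leptochloa chinensis, Cyperus difformis and rice were sown into it and grown in a greenhouse at 25–30 °C.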

[5] = test system: Lolium multiflorum Lam.; assay: Test Example 5: herbicidal effect by foliage application, plastic box (symbol K); conditions: 320 g/ha, 3 weeks after application
Procedure, shortened: as §2

[6] = test system: wheat; assay: Test Example 5: effect on crop by foliage application, plastic box (symbol e); conditions: 320 g/ha, 3 weeks after application
Procedure, shortened: as §1

[7] = test system: rice plant; assay: Test Example 5: effect on crop by foliage application, plastic box (symbol b); conditions: 320 g/ha, 3 weeks after application
Procedure, shortened: as §1

[8] = test system: Apera spica-venti; assay: Test Example 5: herbicidal effect by foliage application, plastic box (symbol L); conditions: 320 g/ha, 3 weeks after application
Procedure, shortened: as §2

[9] = test system: soybean; assay: Test Example 5: effect on crop by foliage application, plastic box (symbol d); conditions: 320 g/ha, 3 weeks after application
Procedure, shortened: as §1

[10] = test system: Avena fatua; assay: Test Example 5: herbicidal effect by foliage application, plastic box (symbol I); conditions: 320 g/ha, 3 weeks after application
Procedure, shortened: as §2

[11] = test system: Setaria viridis; assay: Test Example 5: herbicidal effect by foliage application, plastic box (symbol G); conditions: 320 g/ha, 3 weeks after application
Procedure, shortened: as §2

[12] = test system: Chenopodium album; assay: Test Example 5: herbicidal effect by foliage application, plastic box (symbol O); conditions: 320 g/ha, 3 weeks after application
Procedure, shortened: as §2

[13] = test system: Echinochloa crus-galli var. crus-galli; assay: Test Example 3: herbicidal effect by foliage application, Wagner pot (symbol H); conditions: application herbicide amount 320 g/ha
Procedure, shortened: as §3

[14] = test system: Alopecurus myosuroides; assay: Test Example 5: herbicidal effect by foliage application, plastic box (symbol J); conditions: 320 g/ha, 3 weeks after application
Procedure, shortened: as §2

[15] = test system: Veronica persica; assay: Test Example 5: herbicidal effect by foliage application, plastic box (symbol R); conditions: 320 g/ha, 3 weeks after application
Procedure, shortened: as §2

[16] = test system: beet; assay: Test Example 5: effect on crop by foliage application, plastic box (symbol f); conditions: 320 g/ha, 3 weeks after application
Procedure, shortened: as §1

[17] = test system: Digitaria ciliaris; assay: Test Example 5: herbicidal effect by foliage application, plastic box (symbol F); conditions: 320 g/ha, 3 weeks after application
Procedure, shortened: as §2

[18] = test system: rapeseed; assay: Test Example 5: effect on crop by foliage application, plastic box (symbol g); conditions: 320 g/ha, 3 weeks after application
Procedure, shortened: as §1

[19] = test system: Galium spurium; assay: Test Example 5: herbicidal effect by foliage application, plastic box (symbol Q); conditions: 320 g/ha, 3 weeks after application
Procedure, shortened: as §2

[20] = test system: Amaranthus retroflexus; assay: Test Example 5: herbicidal effect by foliage application, plastic box (symbol N); conditions: 320 g/ha, 3 weeks after application
Procedure, shortened: as §2

[21] = test system: Abutilon theophrasti; assay: Test Example 5: herbicidal effect by foliage application, plastic box (symbol M); conditions: 320 g/ha, 3 weeks after application
Procedure, shortened: as §2

[22] = test system: Stellaria media; assay: Test Example 5: herbicidal effect by foliage application, plastic box (symbol P); conditions: 320 g/ha, 3 weeks after application
Procedure, shortened: as §2

[23] = test system: Cyperus difformis; assay: Test Example 3: herbicidal effect by foliage application, Wagner pot (symbol E); conditions: application herbicide amount 320 g/ha
Procedure, shortened: as §3

Q: How did the “c: corn, effect on crop (criteria of Test Example 1)” value [1] turn out when CC(=O)CC1CC(O)=C(c2c(C)cc(-n3ccnc3)cc2C)C1=O (centres unmarked) [7-025] was run?
A: 0 (Herbicidal ratio of 5% or lower (almost no effect))

Q: What about the “H: Echinochloa crus-galli var. crus-galli, herbicidal effect (criteria of Test Example 1)” value [2] of the same molecule?
A: 0 (Herbicidal ratio of 5% or lower (almost no effect))

Q: What about the “herbicidal effect on D (Leptochloa chinensis), grade 0-5” value [3] of the same molecule?
A: 3 (Herbicidal ratio of 40% or higher and lower than 70%)

Q: And the “effect on crop b (directly sowed rice plant), grade 0-5” value [4]?
A: 0 (Herbicidal ratio of 5% or lower (almost no effect))

Q: And the “K: Lolium multiflorum Lam., herbicidal effect (criteria of Test Example 1)” value [5]?
A: 0 (Herbicidal ratio of 5% or lower (almost no effect))

Q: What about the “e: wheat, effect on crop (criteria of Test Example 1)” value [6] of the same molecule?
A: 0 (Herbicidal ratio of 5% or lower (almost no effect))

Q: And the “b: directly sowed rice plant, effect on crop (criteria of Test Example 1)” value [7]?
A: 0 (Herbicidal ratio of 5% or lower (almost no effect))

Q: What about the “L: Apera spica-venti, herbicidal effect (criteria of Test Example 1)” value [8] of the same molecule?
A: 0 (Herbicidal ratio of 5% or lower (almost no effect))

Q: What about the “d: soybean, effect on crop (criteria of Test Example 1)” value [9] of the same molecule?
A: 0 (Herbicidal ratio of 5% or lower (almost no effect))

Q: What about the “I: Avena fatua, herbicidal effect (criteria of Test Example 1)” value [10] of the same molecule?
A: 0 (Herbicidal ratio of 5% or lower (almost no effect))

Q: What about the “G: Setaria viridis, herbicidal effect (criteria of Test Example 1)” value [11] of the same molecule?
A: 0 (Herbicidal ratio of 5% or lower (almost no effect))

Q: And the “O: Chenopodium album, herbicidal effect (criteria of Test Example 1)” value [12]?
A: 0 (Herbicidal ratio of 5% or lower (almost no effect))

Q: And the “herbicidal effect on H (Echinochloa crus-galli var. crus-galli), grade 0-5” value [13]?
A: 1 (Herbicidal ratio of 5% or higher and lower than 20%)

Q: What about the “J: Alopecurus myosuroides, herbicidal effect (criteria of Test Example 1)” value [14] of the same molecule?
A: 0 (Herbicidal ratio of 5% or lower (almost no effect))

Q: What about the “R: Veronica persica, herbicidal effect (criteria of Test Example 1)” value [15] of the same molecule?
A: 0 (Herbicidal ratio of 5% or lower (almost no effect))

Q: And the “f: beet, effect on crop (criteria of Test Example 1)” value [16]?
A: 0 (Herbicidal ratio of 5% or lower (almost no effect))

Q: What about the “F: Digitaria ciliaris, herbicidal effect (criteria of Test Example 1)” value [17] of the same molecule?
A: 3 (Herbicidal ratio of 40% or higher and lower than 70%)

Q: What about the “g: rapeseed, effect on crop (criteria of Test Example 1)” value [18] of the same molecule?
A: 0 (Herbicidal ratio of 5% or lower (almost no effect))

Q: And the “Q: Galium spurium, herbicidal effect (criteria of Test Example 1)” value [19]?
A: 0 (Herbicidal ratio of 5% or lower (almost no effect))

Q: What about the “N: Amaranthus retroflexus, herbicidal effect (criteria of Test Example 1)” value [20] of the same molecule?
A: 0 (Herbicidal ratio of 5% or lower (almost no effect))

Q: What about the “M: Abutilon theophrasti, herbicidal effect (criteria of Test Example 1)” value [21] of the same molecule?
A: 0 (Herbicidal ratio of 5% or lower (almost no effect))

Q: What about the “P: Stellaria media, herbicidal effect (criteria of Test Example 1)” value [22] of the same molecule?
A: 0 (Herbicidal ratio of 5% or lower (almost no effect))

Q: And the “herbicidal effect on E, grade 0-5” value [23]?
A: 0 (Herbicidal ratio of 5% or lower (almost no effect))
